The record followed here is patent US20220289732A1, “HETEROCYCLIC WDR5 INHIBITORS AS ANTI-CANCER COMPOUNDS” (NOVARTIS AG, priority 2019, published 2022).

pIC50: −log10 of the molar value. Read-outs that look alike come from different tables or passages of the source. A value given as a limit tells only on which side of the number the result lay.

One assay has as its system MV4-11 cells. The assay is described as follows: MV4-11 6-day cell growth CTG (CellTiter-Glo) assay. It is filed as cell-based. Conditions: 6 days, read-out: (c) MLL/WDR5 cell proliferation assay//MLL/WDR5 proliferation MV4:11 Qualified AC50. In short, it runs like this:
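IC50 comes from a dose-response fit of % inhibition relative to DMSO controls, with viable cells measured by CellTiter-Glo luminescence. Compounds were tested over 12 points (1:3, starting at 50 μM final) on MV4-11 cells plated at 300/well and grown 6 days.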
A general note: In ATP-based viability assays light output follows the ATP content of the culture.

The target in the next assay is WDR5 (Homo sapiens, UniProt P61964). The assay is described as follows: WDR5 HTRF binding assay. Conditions: read-out: (a) WDR5 HTRF Pep Val v.1[Inhibitor/IC50]Qualified AC50. A digest of the protocol:
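In this HTRF displacement format, biotinylated MLL1 WIN peptide (3762-3773, 20 nM) binds WDR5 (6 nM) in 25 mM Hepes pH 7.5 with 100 mM NaCl, 2 mM DTT and 0.1% BSA for 20 min at rt. Detection used streptavidin-APC/anti-His-Eu for 1 hr. IC50 came from dose-response fits of normalized signal; 15 nM biotin-PEG-His peptide served as counter assay.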
In general terms: Time-resolved FRET reads energy transfer from a long-lived donor to a nearby acceptor.

The target of assay [1] is wild type MLL1 four-member complex (MLL1-4C) (Homo sapiens, UniProt P61964). The assay is described as follows: MLL1 LC-MS assay (SAH production). It is filed as biochemical. Conditions: read-out: (b) MLL LCMS Peptide Val.v.1 Qualified AC50. In short, it runs like this:
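SAH formation, measured by LC-MS/MS after a TFA quench containing d4-SAH, was normalised to no-compound and no-enzyme controls and fitted to a dose-response curve for IC50. Reactions ran 120 min at rt (pH 8.0 Tris buffer) with final 30 nM MLL1 four-member complex, 2.5 μM SAM and 10 μM biotinylated H3[1-21] peptide, after a 20-min enzyme/SAM-compound preincubation.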

In the case of `CCOc1cc([C@H](C)N2CCc3c(cc(CCN(C)CCO)cc3-c3cc(F)cnc3C(F)(F)F)C2=O)ncc1C#N` [Example 228, (S)-4-ethoxy-6-(1-(5-(5-fluoro-2-(trifluoromethyl)pyridin-3-yl)-7-(2-((2-hydroxyethyl)(methyl)amino)ethyl)-1-oxo-3,4-dihydroisoquinolin-2(1H)-yl)ethyl)nicotinonitrile], the AC50 with MV4-11 cells (Homo sapiens, MV4-11, 144 h) was 10 to 1000 nM; in assay [1], 10 to 1000 nM. On WDR5, the pIC50 is greater than 8.00.

On to `CNc1nccn1Cc1cc(CN2CC(F)C2)c2c(c1)C(=O)N(Cc1cnc(F)c(OC)c1)CC2` [Example 33, 2-((6-fluoro-5-methoxypyridin-3-yl)methyl)-5-((3-fluoroazetidin-1-yl)methyl)-7-((2-(methylamino)-1H-imidazol-1-yl)methyl)-3,4-dihydroisoquinolin-1(2H)-one], for which the AC50 with MV4-11 cells (Homo sapiens, MV4-11, 144 h) was in the range of 10 to 1000 nM; in assay [1] it was 10 to 1000 nM. In addition, the pIC50 on WDR5 is 6.00 to 8.00.

With `CCOc1cc([C@H](C)N2CCc3c(cc(CCN(C)CC)cc3-c3cccnc3C(F)F)C2=O)ncc1C#N` [Example 119, (S)-6-(1-(5-(2-(difluoromethyl)pyridin-3-yl)-7-(2-(ethyl(methyl)amino)ethyl)-1-oxo-3,4-dihydroisoquinolin-2(1H)-yl)ethyl)-4-ethoxynicotinonitrile], the AC50 with MV4-11 cells (Homo sapiens, MV4-11, 144 h) fell in the range of 10 to 1000 nM; in assay [1], 10 to 1000 nM. For the same compound, at WDR5, the pIC50 was greater than 8.00.

Consider `CCOc1cc([C@H](C)N2CCc3c(Cl)cc(Cn4ccnc4NC)cc3C2=O)ncc1C#N` (single isomer, unassigned) [Example 3], for which the AC50 is 10 to 1000 nM in the assay on MV4-11 cells (Homo sapiens, MV4-11, 144 h) and 10 to 1000 nM in assay [1]. Further, the pIC50 on WDR5 is greater than 8.00.

For `CCOc1cc(C(C)N2CCc3c(cc(CCN(C)CC)cc3-c3cn(C)nc3C(F)(F)F)C2=O)ncc1C#N` (stereo not drawn) [Example 148, 4-ethoxy-6-(1-(7-(2-(ethyl(methyl)amino)ethyl)-5-(1-methyl-3-(trifluoromethyl)-1H-pyrazol-4-yl)-1-oxo-3,4-dihydroisoquinolin-2(1H)-yl)ethyl)nicotinonitrile], the AC50 in the assay with MV4-11 cells (Homo sapiens, MV4-11, 144 h) lay within 10 to 1000 nM; in assay [1], 10 to 1000 nM. In addition, the pIC50 at WDR5 is 6.00 to 8.00.

Regarding `CCOc1cc([C@H](C)N2CCc3c(cc(Cn4ccnc4C)cc3-c3cn(C)c(=O)cc3C)C2=O)ncc1C#N` [Example 275], the AC50 was in the range of 10 to 1000 nM in the assay on MV4-11 cells (Homo sapiens, MV4-11, 144 h) and 10 to 1000 nM in assay [1]. The pIC50 on WDR5 was greater than 8.00.

Consider `CNc1nccn1Cc1cc(CN(C)C)c2c(c1)C(=O)N([C@@H](C)c1cnc(F)c(OC)c1)CC2` [Example 29, (S)-5-((dimethylamino)methyl)-2-(1-(6-fluoro-5-methoxypyridin-3-yl)ethyl)-7-((2-(methylamino)-1H-imidazol-1-yl)methyl)-3,4-dihydroisoquinolin-1(2H)-one], for which the AC50 in the assay with MV4-11 cells (Homo sapiens, MV4-11, 144 h) was 10 to 1000 nM; in assay [1] it was 10 to 1000 nM. In addition, on WDR5, the pIC50 is 6.00 to 8.00.

For the compound `CCOc1cc([C@H](C)N2CCc3c(cc(Cn4ccnc4C)cc3-c3cn(C)c(=O)cc3C)C2=O)ncc1F` [Example 281], the AC50 with MV4-11 cells (Homo sapiens, MV4-11, 144 h) is 10 to 1000 nM; in assay [1], 10 to 1000 nM. Further, the pIC50 at WDR5 is greater than 8.00.

Regarding `CCOc1cc([C@H](C)N2CCc3c(cc(CCN(C)CC)cc3-c3cc(C)nnc3C)C2=O)ncc1C#N` [Example 173, (S)-6-(1-(5-(3,6-dimethylpyridazin-4-yl)-7-(2-(ethyl(methyl)amino)ethyl)-1-oxo-3,4-dihydroisoquinolin-2(1H)-yl)ethyl)-4-ethoxynicotinonitrile], the AC50 lay in the range of 10 to 1000 nM in the assay with MV4-11 cells (Homo sapiens, MV4-11, 144 h) and 10 to 1000 nM in assay [1]. Further, the pIC50 at WDR5 was greater than 8.00.

With `CCOc1cc([C@H](C)N2CCc3c(cc(Cn4ccnc4C)cc3-n3nc(C)nc3C(F)F)C2=O)ncc1C#N` [Example 294], the AC50 in the assay on MV4-11 cells (Homo sapiens, MV4-11, 144 h) was 10 to 1000 nM; in assay [1] it was 10 to 1000 nM. Also, on WDR5, the pIC50 was 6.00 to 8.00.

Turning to `CCOc1cc([C@H](C)N2CCc3c(cc(CCN(C)CC)cc3-c3cn(C)c(=O)cc3C(F)(F)F)C2=O)ncc1F` [Example 204, (S)-2-(1-(4-ethoxy-5-fluompyridin-2-yl)ethyl)-7-(2-(ethyl(methyl)amino)ethyl)-5-(1-methyl-6-oxo-4-(trifluoromethyl)-1,6-dihydropyridin-3-yl)-3,4-dihydroisoquinolin-1(2H)-one], the AC50 (in the assay with MV4-11 cells; in assay [1]) was 10 to 1000 nM throughout. The pIC50 on WDR5 is 6.00 to 8.00.

Take `CCOc1cc([C@H](C)N2CCc3c(cc(CCN(C)CC)cc3-c3cn(C)c(=O)cc3C(F)F)C2=O)ncc1C#N` [Example 149, (S)-6-(1-(5-(4-(difluoromethyl)-1-methyl-6-oxo-1,6-dihydropyridin-3-yl)-7-(2-(ethyl(methyl)amino)ethyl)-1-oxo-3,4-dihydroisoquinolin-2(1H)-yl)ethyl)-4-ethoxynicotinonitrile]: the AC50 in the assay on MV4-11 cells (Homo sapiens, MV4-11, 144 h) was in the range of 10 to 1000 nM; in assay [1], 10 to 1000 nM. Further, the pIC50 on WDR5 was 6.00 to 8.00.

Take `CCOc1cc([C@H](C)N2CCc3c(cc(Cn4ccnc4NC)cc3C(F)F)C2=O)ncc1F` [Example 91, (S)-5-(difluoromethyl)-2-(1-(4-ethoxy-5-fluoropyridin-2-yl)ethyl)-7-((2-(methylamino)-1H-imidazol-1-yl)methyl)-3,4-dihydroisoquinolin-1(2H)-one]: the AC50 lay in the range of 10 to 1000 nM with MV4-11 cells (Homo sapiens, MV4-11, 144 h) and 10 to 1000 nM in assay [1]. The pIC50 on WDR5 was 6.00 to 8.00.

Take `CCOc1cc([C@H](C)N2CCc3c(cc(CCN(C)CC)cc3-c3cc(C(C)O)cnc3C)C2=O)ncc1C#N` (stereo partly drawn) [Example 186, 4-ethoxy-6-((1S)-1-(7-(2-(ethyl(methyl)amino)ethyl)-5-(5-(1-hydroxyethyl)-2-methylpyridin-3-yl)-1-oxo-3,4-dihydroisoquinolin-2(1H)-yl)ethyl)nicotinonitrile]: the AC50 lay in the range of 10 to 1000 nM in the assay with MV4-11 cells (Homo sapiens, MV4-11, 144 h) and 10 to 1000 nM in assay [1]. Besides, the pIC50 on WDR5 was greater than 8.00.

In the case of `CCOc1cc([C@H](C)N2CCc3c(cc(Cn4ccnc4C)cc3-c3cn(C)nc3C)C2=O)ncc1C(N)=O` (single isomer, unassigned) [Example 268], the AC50 in the assay on MV4-11 cells (Homo sapiens, MV4-11, 144 h) was 10 to 1000 nM; in assay [1] it was 10 to 1000 nM. Also, the pIC50 at WDR5 is greater than 8.00.

In the case of `CCOc1cc(C(C)N2CCc3c(cc(CCN(C)CC)cc3-c3cc(C)nn3C)C2=O)ncc1C#N` (stereo not drawn) [Example 205, 6-(1-(5-(1,3-dimethyl-1H-pyrazol-5-yl)-7-(2-(ethyl(methyl)amino)ethyl)-1-oxo-3,4-dihydroisoquinolin-2(1H)-yl)ethyl)-4-ethoxynicotinonitrile], the AC50 in the assay with MV4-11 cells (Homo sapiens, MV4-11, 144 h) was 10 to 1000 nM; in assay [1], 10 to 1000 nM. Besides, the pIC50 on WDR5 is 6.00 to 8.00.

For `CNc1nccn1Cc1cc2c(c(C3CC3)c1)CCN([C@@H](C)c1cnc(F)c(OC)c1)C2=O` (single isomer, unassigned) [Example 78], the AC50 in the assay on MV4-11 cells (Homo sapiens, MV4-11, 144 h) lay in the range of 10 to 1000 nM; in assay [1], 10 to 1000 nM. For the same compound, the pIC50 on WDR5 was greater than 8.00.

As to `CCOc1cc([C@H](C)N2CCc3c(cc(CCN4C[C@@H](O)[C@H]4C)cc3-c3cn(C)c(=O)cc3Cl)C2=O)ncc1C#N` [Example 215], the AC50 with MV4-11 cells (Homo sapiens, MV4-11, 144 h) was 10 to 1000 nM; in assay [1], 10 to 1000 nM. Also, on WDR5, the pIC50 was greater than 8.00.

As for `CCOc1cc(CN2CCc3c(cc(CCN(C)CC)cc3-c3cn(C)nc3C)C2=O)ncc1C#N` [Example 129, 6-((5-(1,3-dimethyl-1H-pyrazol-4-yl)-7-(2-(ethyl(methyl)amino)ethyl)-1-oxo-3,4-dihydroisoquinolin-2(1H)-yl)methyl)-4-ethoxynicotinonitrile], the AC50 with MV4-11 cells (Homo sapiens, MV4-11, 144 h) was in the range of 10 to 1000 nM; in assay [1], 10 to 1000 nM. Also, the pIC50 at WDR5 is greater than 8.00.

On to `CCOc1cc(C(C)N2CCc3c(cc(Cn4ccnc4C)cc3-c3cn(C)nc3C)C2=O)ncc1C#N` (racemic) [Example 261, 6-(1-(5-(1,3-dimethyl-1H-pyrazol-4-yl)-7-((2-methyl-1H-imidazol-1-yl)methyl)-1-oxo-3,4-dihydroisoquinolin-2(1H)-yl)ethyl)-4-ethoxynicotinonitrile], for which the AC50 was in the range of 10 to 1000 nM in the assay on MV4-11 cells (Homo sapiens, MV4-11, 144 h) and 10 to 1000 nM in assay [1]. Further, at WDR5, the pIC50 is greater than 8.00.

As to `CNc1nccn1Cc1cc(-c2cc(CO)cnc2Cl)c2ccn(Cc3ccc(F)c(OC)c3)c(=O)c2c1` [Example 101, 5-(2-chloro-5-(hydroxymethyl)pyridin-3-yl)-2-(4-fluoro-3-methoxybenzyl)-7-((2-(methylamino)-1H-imidazol-1-yl)methyl)isoquinolin-1(2H)-one], the AC50 in the assay with MV4-11 cells (Homo sapiens, MV4-11, 144 h) was in the range of 10 to 1000 nM; in assay [1], 10 to 1000 nM. Moreover, at WDR5, the pIC50 was 6.00 to 8.00.

As to `CCOc1cc([C@H](C)N2CCc3c(cc(Cn4ccnc4C)cc3[C@@H]3CCCN3C)C2=O)ncc1C#N` (single isomer, unassigned) [Example 266], the AC50 lay in the range of 1000 to 25000 nM with MV4-11 cells (Homo sapiens, MV4-11, 144 h) and 1000 to 25000 nM in assay [1]. For the same compound, the pIC50 at WDR5 is 4.60 to 6.00.

In the case of `CCOc1cc([C@H](C)N2CCc3c(cc(Cn4ccnc4NC)cc3C3CC3)C2=O)cnc1C#N` [Example 80, (S)-5-(1-(5-cyclopropyl-7-((2-(methylamino)-1H-imidazol-1-yl)methyl)-1-oxo-3,4-dihydroisoquinolin-2(1H)-yl)ethyl)-3-ethoxypicolinonitrile], the AC50 lay in the range of 10 to 1000 nM in the assay on MV4-11 cells (Homo sapiens, MV4-11, 144 h) and 10 to 1000 nM in assay [1]. The pIC50 on WDR5 was 6.00 to 8.00.
